Measurements: patent publication US20110105623A1 (Biogenic Innovations, LLC, priority 2009, published 2011)

Experiments:
[1] = system: Streptococcus Pyogenes (Lancefield group A, #10096); test: Bacterial viability by bioluminescent ATP assay
[2] = system: Streptococcus Pneumonia (#10341); test: Bacterial viability by bioluminescent ATP assay

Compound | IC50 [1] | S. pneumonia viability (%) ([2]; 25 μg/L penicillin alone) | reduced viability by ([2]; 25 μg/L penicillin alone) | S. pneumonia viability (%) ([2]; 50 μg/L Penicillin alone) | S. pneumonia viability (%) ([2]; 100 μg/L Penicillin alone) | S. pneumonia viability ([2]; Penicillin 100 μg/L, MSM 0%) | Viability of S. pyogenes ([1]; DMSO Concentration 0.31) | Viability of S. pyogenes ([1]; DMSO Concentration 0.63) | Viability of S. pyogenes ([1]; DMSO Concentration 1.25) | Viability of S. pyogenes ([1]; DMSO Concentration 2.50) | S. pyogenes viability ([1]; DMSO […], MSM 0%) | IC50 [2] | reduces viability by ([2]; 5% DMSO)
Penicillin | 15.25 µg/L | 79.82% | approximately 21% | 42.70% | 40.93% | 40.93% |  |  |  |  |  |  | 
C[S+](C)[O-] [DMSO, Dimethyl sulfoxide] | 9.07% |  |  |  |  |  | 100% | 100% | 100% | 100% | 100% | 12.86% | approximately 25%
